Measurements from US4279905A, “1-Benzoxepin-5 (2H)-one derivatives and pharmaceutical compositions” (Kali-Chemie Pharma GmbH, priority 1979, dated 1981).

Key:
[1] = Determination of acute toxicity (seven-day, single intraperitoneal dose); settings: in vivo, ip, fasting white NMRI mouse, single dose i.p., probit analysis, read-out: LP50 i.p.
Experimental: The acute seven-day toxicity is determined by intraperitoneal administration of a single dose of the respective compound to a fasting white NMRI mouse. The LD50 -values are calculated via electronic data processing by a probit analysis as described in the book "Grundbegriffe der Biometrie" (Basic Biometrical Definitions) by L. Cavalli-Sforza, page 153 et seq., published by Gustav Fischer Verlag, Stuttgart, 1964.

[2] = test system: gastric peristalsis; assay: Testing of the gastric peristalsis (gastric pressure, barium chloride-stimulated stomach of narcotized rats); assay type: in vivo; settings: 20 mg/kg intraperitoneally, BaCl2 50 mg/kg/h i.v. infusion, compared with control value before compound; for Change in gastric pressure-wave amplitude: the values are: decrease in gastric amplitude; for change in vivo at 20 mg/kg: Rattus norvegicus, ip, read-out: Frequency Decrease in %
Excerpt: To determine the functioning of the gastric peristalsis, rats weighing about 200 g are narcotized by means of ketamine hydrochloride and xylazine. A catheter is introduced into the Vena jugularis of the narcotized rats and a tracheal catheter into the trachea. A stomach probe is inserted into their stomach and tied thereto. The probe is connected via a three-way cock with a Statham pressure imparting device (P 23 DB). The stomach is sealed off by a ligature at the pylorus and at the cardia. The stomach is filled with 3 ml of a 0.9% aqueous sodium chloride solution. The pressure waves produced by the stomach are continuously registered by a suitable recording device such by a Watanabe Multicorder (MC 641).
In conducting the test, a control value is obtained by inducing a stimulation of the stomach through a lengthy intravenous infusion of 50 mg/kg/h of bariumchloride and the amplitude and frequency of resultant pressure waves are measured. Subsequently, in order to determine the pharmacological effects, the compounds to be tested are dissolved in physiological sodium chloride solution or are suspended in Tylose MH 50 solution. The solutions or suspensions are then administered intraperitoneally to the rats in a dose of 20 mg/kg. The amplitudes and frequencies of the pressure wave-like movements of the stomach as they occur with the test solution and after administration of the compound to be tested, are compared.

CC(C)NC1=CC(=O)c2ccccc2OC1 [C, 3-isopropylamino-1-benzoxepin-5(2H)-one]
LD50 at 168 h [1]: 544 mg/kg
Change in gastric pressure-wave amplitude [2]: 32%
change in vivo at 20 mg/kg [2]: -2%

CNC1=CC(=O)c2ccccc2OC1 [A, 3-methylamino-1-benzoxepin-5(2H)-one]
LD50 at 168 h [1]: 664 mg/kg
Change in gastric pressure-wave amplitude [2]: 56%
change in vivo at 20 mg/kg [2]: -18%

CNC1=CC(=O)c2cc(Cl)ccc2OC1 [N, 3-methylamino-7-chloro-1-benzoxepin-5(2H)-one]
Change in gastric pressure-wave amplitude [2]: 46%
change in vivo at 20 mg/kg [2]: -1%

CCCCNC1=CC(=O)c2ccccc2OC1 [E, 3-(n-butylamino)-1-benzoxepin-5(2H)-one]
LD50 at 168 h [1]: 442 mg/kg
Change in gastric pressure-wave amplitude [2]: 26%
change in vivo at 20 mg/kg [2]: 36%

CNC1=CC(=O)c2cc(F)ccc2OC1 [O, 3-methylamino-7-fluoro-1-benzoxepin-5(2H)-one]
Change in gastric pressure-wave amplitude [2]: 37%
change in vivo at 20 mg/kg [2]: 1%

O=C1C=C(NCCc2ccccc2)COc2ccccc21 [Compound F, 3-phenethylamino-1-benzoxepin-5(2H)-one]
Change in gastric pressure-wave amplitude [2]: 29%
change in vivo at 20 mg/kg [2]: -7%

CNC1=CC(=O)c2ccc(Cl)cc2OC1 [B, 3-methylamino-8-chloro-1-benzoxepin-5(2H)-one]
LD50 at 168 h [1]: 450 mg/kg
Change in gastric pressure-wave amplitude [2]: 58%
change in vivo at 20 mg/kg [2]: -16%

CNC1=CC(=O)c2cc(C)ccc2OC1 [L, 3-methylamino-7-methyl-1-benzoxepin-5(2H)-one]
Change in gastric pressure-wave amplitude [2]: 75%
change in vivo at 20 mg/kg [2]: 15%

COCCNC1=CC(=O)c2ccccc2OC1 [I, 3-(β-methoxyethylamino)-1-benzoxepin-5(2H)-one]
Change in gastric pressure-wave amplitude [2]: 46%
change in vivo at 20 mg/kg [2]: 11%

O=C1C=C(N2CCOCC2)COc2ccccc21 [H, 3-morpholino-1-benzoxepin-5(2H)-one]
LD50 at 168 h [1]: 650 mg/kg
Change in gastric pressure-wave amplitude [2]: 12%
change in vivo at 20 mg/kg [2]: 17%

O=C1C=C(N2CCN(Cc3ccccc3)CC2)COc2ccccc21 [G, 3-(N-benzylpiperazino)-1-benzoxepin-5(2H)-one]
LD50 at 168 h [1]: 634 mg/kg
Change in gastric pressure-wave amplitude [2]: 31%
change in vivo at 20 mg/kg [2]: 10%

NC1=CC(=O)c2ccccc2OC1 [D, 3-amino-1-benzoxepin-5(2H)-one]
LD50 at 168 h [1]: 544 mg/kg
Change in gastric pressure-wave amplitude [2]: 45%
change in vivo at 20 mg/kg [2]: -12%

CNC1=CC(=O)c2ccc(C(C)(C)C)cc2OC1 [M, 3-methylamino-8-tert.-butyl-1-benzoxepin-5(2H)-one]
Change in gastric pressure-wave amplitude [2]: 72%
change in vivo at 20 mg/kg [2]: 10%

CNC1=CC(=O)c2ccc(C)cc2OC1 [K, 3-methylamino-8-methyl-1-benzoxepin-5(2H)-one]
Change in gastric pressure-wave amplitude [2]: 55%
change in vivo at 20 mg/kg [2]: 4%
